Results taken from PMC12514245, “Impaired migration and lung invasion of human melanoma by a novel small molecule targeting the transmembrane domain of death receptor p75^NTR” (EMBO Molecular Medicine, 2025).
Values joined by “and” are separate entries in the source; they are usually repeats but may differ in a detail not shown here. Identical values can stand only once.

Columns and labels:
p75^NTR TMD V254A = molecular target: T1, p75^NTR TMD V254A (Homo sapiens, UniProt P08138, V254A); test: AraTM assay, V254A mutant p75NTR TMD; type: cell-based; settings: for GFP/OD630, p75NTR V254A, Mean: N=3
T1 construct: Comparison of wild-type (WT) p75^NTR TMD and I252A, P253G and V254A mutants in the AraTM assay; expressed in transfected cells; host or cells: E. coli AS19 (LPS-negative)
T1 sequence (P08138 250-275 V254A): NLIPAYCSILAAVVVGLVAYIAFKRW

p75^NTR TMD I252A = molecular target: T2, p75^NTR TMD I252A (Homo sapiens, UniProt P08138, I252A); test: AraTM assay, I252A mutant p75NTR TMD; type: cell-based; settings: for GFP/OD630, p75NTR I252A, Mean: N=3
T2 construct: Comparison of wild-type (WT) p75^NTR TMD and I252A, P253G and V254A mutants in the AraTM assay; expressed in transfected cells; host or cells: E. coli AS19 (LPS-negative)
T2 sequence (P08138 250-275 I252A): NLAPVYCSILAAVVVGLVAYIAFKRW

p75^NTR TMD = molecular target: T3, p75^NTR TMD (Homo sapiens, UniProt P08138); test: AraTM assay, wild-type p75NTR TMD (GFP/OD630); type: cell-based; settings: for GFP/OD630, p75, mean / GFP/OD630, p75NTR WT, Mean: N=3; for GFP/OD630, p75NTR WT, n1-n3: WT without drug = 100%; for GFP/OD630, Mean / GFP/OD630, individual replicates: Figure 5B
T3 sequence (P08138 250-275 limits assumed): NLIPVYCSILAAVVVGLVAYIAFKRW

p75^NTR TMD P253G = molecular target: T4, p75^NTR TMD P253G (Homo sapiens, UniProt P08138, P253G); test: AraTM assay, P253G mutant p75NTR TMD; type: cell-based; settings: for GFP/OD630, p75NTR P253G, Mean: N=3
T4 construct: Comparison of wild-type (WT) p75^NTR TMD and I252A, P253G and V254A mutants in the AraTM assay; expressed in transfected cells; host or cells: E. coli AS19 (LPS-negative)
T4 sequence (P08138 251-272 P253G limits assumed): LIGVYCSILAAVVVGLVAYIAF

A875 shp75 cells = test: Wound healing cell motility assay, A875 shp75; type: cell-based, human; settings: for Wound area, Mean: N=3
Experimental: For wound healing assay, cells were grown until confluency and subjected to a wound across the cell mono-layer. Cells were then incubated with serum-free media either with DMSO or a small molecule (with or without 5 µM Q_VD_poH) and imaged at specific time-points. Cell migration is reflected as fold change in wound area over time.

[1] = 5μM Q_VD_poH + 10μM Div17E5, 0 hours
[2] = 5μM Q_VD_poH + 10μM Div17E5, 3 hours
[3] = 5μM Q_VD_poH + 10μM Div17E5, 6 hours
[4] = 5μM Q_VD_poH + 10μM Div17E5, 9 hours
[5] = 5μM Q_VD_poH + 10μM Div17E5, 12 hours
[6] = 5μM Q_VD_poH + 10μM Div17E5, 15 hours
[7] = 5μM Q_VD_poH + 10μM Div17E5, 18 hours
[8] = 5μM Q_VD_poH + 10μM Div17E5, 21 hours
[9] = 5μM Q_VD_poH + 10μM Div17E5, 24 hours

Oc1ccc(-c2cncc(Nc3ccc(Br)c(Cl)c3)n2)cc1 [Div17E5]
effect of Val254 mutation on compound activity in AraTM assay (p75^NTR TMD V254A): abolished | GFP/OD630, p75NTR V254A, n1-n3 (p75^NTR TMD V254A; Div17E5 7.5 uM): 87% and 97% and 91% | GFP/OD630, p75NTR V254A, Mean (p75^NTR TMD V254A; Div17E5 7.5 uM): 92% | GFP/OD630, p75NTR V254A, n1-n3 (p75^NTR TMD V254A; Div17E5 15 uM): 86% and 95% and 96% | GFP/OD630, p75NTR V254A, Mean (p75^NTR TMD V254A; Div17E5 15 uM): 92% | GFP/OD630, p75NTR V254A, n1-n3 (p75^NTR TMD V254A; Div17E5 20 uM): 89% and 96% and 99% | GFP/OD630, p75NTR V254A, Mean (p75^NTR TMD V254A; Div17E5 20 uM): 95% | GFP/OD630, p75NTR V254A, n1-n3 (p75^NTR TMD V254A; Div17E5 50 uM): 95% and 85% and 98% | GFP/OD630, p75NTR V254A, Mean (p75^NTR TMD V254A; Div17E5 50 uM): 93% | effect of Ile252 mutation on compound activity in AraTM assay (p75^NTR TMD I252A): abolished | GFP/OD630, p75NTR I252A, n1-n3 (p75^NTR TMD I252A; Div17E5 7.5 uM): 99% and 104% and 92% | GFP/OD630, p75NTR I252A, Mean (p75^NTR TMD I252A; Div17E5 7.5 uM): 98% | GFP/OD630, p75NTR I252A, n1-n3 (p75^NTR TMD I252A; Div17E5 15 uM): 98% and 107% and 87% | GFP/OD630, p75NTR I252A, Mean (p75^NTR TMD I252A; Div17E5 15 uM): 97% | GFP/OD630, p75NTR I252A, n1-n3 (p75^NTR TMD I252A; Div17E5 20 uM): 96% and 91% and 100% | GFP/OD630, p75NTR I252A, Mean (p75^NTR TMD I252A; Div17E5 20 uM): 96% | GFP/OD630, p75NTR I252A, n1-n3 (p75^NTR TMD I252A; Div17E5 50 uM): 99% and 106% and 92% | GFP/OD630, p75NTR I252A, Mean (p75^NTR TMD I252A; Div17E5 50 uM): 99% | GFP/OD630, p75, single replicates (p75^NTR TMD; Div17E5 1 μM): 95 and 91 and 115 | GFP/OD630, p75, mean (p75^NTR TMD; Div17E5 1 μM): 100 | GFP/OD630, p75, single replicates (p75^NTR TMD; Div17E5 2.5 μM): 82 and 86 and 101 | GFP/OD630, p75, mean (p75^NTR TMD; Div17E5 2.5 μM): 90 | GFP/OD630, p75, single replicates (p75^NTR TMD; Div17E5 5 μM): 66 and 81 and 88 | GFP/OD630, p75, mean (p75^NTR TMD; Div17E5 5 μM): 78 | GFP/OD630, p75NTR WT, Mean (p75^NTR TMD; Div17E5 7.5 uM): 69% | GFP/OD630, p75NTR WT, n1-n3 (p75^NTR TMD; Div17E5 7.5 uM): 70% and 62% and 76% | GFP/OD630, p75, single replicates (p75^NTR TMD; Div17E5 10 μM): 49 and 55 and 68 | GFP/OD630, p75, mean (p75^NTR TMD; Div17E5 10 μM): 57 | GFP/OD630, p75NTR WT, Mean (p75^NTR TMD; Div17E5 15 uM): 61% | GFP/OD630, p75NTR WT, n1-n3 (p75^NTR TMD; Div17E5 15 uM): 62% and 58% and 63% | GFP/OD630, p75, single replicates (p75^NTR TMD; Div17E5 20 μM): 39 and 55 and 49 | GFP/OD630, p75NTR WT, Mean (p75^NTR TMD; Div17E5 20 uM): 45% | GFP/OD630, p75, mean (p75^NTR TMD; Div17E5 20 μM): 48 | GFP/OD630, p75NTR WT, n1-n3 (p75^NTR TMD; Div17E5 20 uM): 50% and 41% and 44% | GFP/OD630, p75, single replicates (p75^NTR TMD; Div17E5 50 μM): 33 and 42 and 39 | GFP/OD630, p75NTR WT, Mean (p75^NTR TMD; Div17E5 50 uM): 45% | GFP/OD630, p75, mean (p75^NTR TMD; Div17E5 50 μM): 38 | GFP/OD630, p75NTR WT, n1-n3 (p75^NTR TMD; Div17E5 50 uM): 43% and 46% and 47% | GFP/OD630, Mean (p75^NTR TMD; compound 2 μM): 0.93 | GFP/OD630, individual replicates (p75^NTR TMD; compound 2 μM): 0.98 and 0.93 and 0.88 | GFP/OD630, Mean (p75^NTR TMD; compound 4 μM): 0.86 | GFP/OD630, individual replicates (p75^NTR TMD; compound 4 μM): 0.83 and 0.92 and 0.82 | GFP/OD630, Mean (p75^NTR TMD; compound 6 μM): 0.82 | GFP/OD630, individual replicates (p75^NTR TMD; compound 6 μM): 0.86 and 0.78 and 0.83 | GFP/OD630, Mean (p75^NTR TMD; compound 8 μM): 0.44 | GFP/OD630, individual replicates (p75^NTR TMD; compound 8 μM): 0.43 and 0.51 and 0.37 | GFP/OD630, Mean (p75^NTR TMD; compound 10 μM): 0.43 | GFP/OD630, individual replicates (p75^NTR TMD; compound 10 μM): 0.41 and 0.48 and 0.40 | IC50 (p75^NTR TMD; dose-response): 12 µM | selectivity for the p75NTR TMD as compared to TMDs of two unrelated proteins (p75^NTR TMD; vs α2β3 integrin and M2 TMDs): good selectivity | effect of Pro253 mutation on compound activity in AraTM assay (p75^NTR TMD P253G): had no effect | GFP/OD630, p75NTR P253G, n1-n3 (p75^NTR TMD P253G; Div17E5 7.5 uM): 62% and 68% and 61% | GFP/OD630, p75NTR P253G, Mean (p75^NTR TMD P253G; Div17E5 7.5 uM): 64% | GFP/OD630, p75NTR P253G, n1-n3 (p75^NTR TMD P253G; Div17E5 15 uM): 61% and 77% and 66% | GFP/OD630, p75NTR P253G, Mean (p75^NTR TMD P253G; Div17E5 15 uM): 68% | GFP/OD630, p75NTR P253G, n1-n3 (p75^NTR TMD P253G; Div17E5 20 uM): 59% and 49% and 56% | GFP/OD630, p75NTR P253G, Mean (p75^NTR TMD P253G; Div17E5 20 uM): 55% | GFP/OD630, p75NTR P253G, n1-n3 (p75^NTR TMD P253G; Div17E5 50 uM): 57% and 56% and 59% | GFP/OD630, p75NTR P253G, Mean (p75^NTR TMD P253G; Div17E5 50 uM): 57% | wound closure (A875 shp75 cells): did not significantly affect wound closure | Wound area, n1-n3 (A875 shp75 cells; [1]): 0.989 Fold and 0.886 Fold and 1.125 Fold | Wound area, Mean (A875 shp75 cells; [1]): 1.000 Fold | Wound area, n1-n3 (A875 shp75 cells; [2]): 0.947 Fold and 0.979 Fold and 1.007 Fold | Wound area, Mean (A875 shp75 cells; [2]): 0.978 Fold | Wound area, n1-n3 (A875 shp75 cells; [3]): 0.959 Fold and 0.975 Fold and 0.953 Fold | Wound area, Mean (A875 shp75 cells; [3]): 0.962 Fold | Wound area, n1-n3 (A875 shp75 cells; [4]): 0.955 Fold and 0.965 Fold and 0.942 Fold | Wound area, Mean (A875 shp75 cells; [4]): 0.954 Fold | Wound area, n1-n3 (A875 shp75 cells; [5]): 0.935 Fold and 0.950 Fold and 0.940 Fold | Wound area, Mean (A875 shp75 cells; [5]): 0.941 Fold | Wound area, n1-n3 (A875 shp75 cells; [6]): 0.901 Fold and 0.902 Fold and 0.903 Fold | Wound area, Mean (A875 shp75 cells; [6]): 0.902 Fold | Wound area, n1-n3 (A875 shp75 cells; [7]): 0.849 Fold and 0.823 Fold | Wound area, Mean (A875 shp75 cells; [7]): 0.840 Fold | Wound area, n1-n3 (A875 shp75 cells; [8]): 0.828 Fold and 0.801 Fold and 0.783 Fold | Wound area, Mean (A875 shp75 cells; [8]): 0.804 Fold | Wound area, n1-n3 (A875 shp75 cells; [9]): 0.790 Fold and 0.822 Fold and 0.793 Fold | Wound area, Mean (A875 shp75 cells; [9]): 0.801 Fold | Wound area, n1-n3 (A875 shp75 cells; 10μM Div17E5, 0 hours): 1.039 Fold and 1.010 Fold and 0.951 Fold | Wound area, Mean (A875 shp75 cells; 10μM Div17E5, 0 hours): 1.000 Fold | Wound area, n1-n3 (A875 shp75 cells; 10μM Div17E5, 3 hours): 0.987 Fold and 0.961 Fold and 0.970 Fold | Wound area, Mean (A875 shp75 cells; 10μM Div17E5, 3 hours): 0.973 Fold | Wound area, n1-n3 (A875 shp75 cells; 10μM Div17E5, 6 hours): 0.982 Fold and 0.933 Fold and 0.919 Fold | Wound area, Mean (A875 shp75 cells; 10μM Div17E5, 6 hours): 0.945 Fold
